The compounds below were run on SARS-CoV-2-NLuc in A549-hACE2 cells (assay: microbe, parasite or virus in culture). Conditions: Severe acute respiratory syndrome coronavirus 2, 48 h, read-out: MPro EC50.
Assay type: cell-based

First: O=C1C[C@H](n2c(=O)[nH]c3cc(-c4ccccc4Cl)sc3c2=O)CCCN1 (single isomer, unassigned) [Example 21]
Second: O=C1C[C@@H](n2c(=O)[nH]c3cc(-c4ccccc4Cl)sc3c2=O)CCCN1 (single isomer, unassigned) [Example 22]
The EC50 of the first is 7-fold lower: 22.3 nM for the first, 155 nM for the second.

First: COc1ccc(Cl)c(-c2cc3[nH]c(=O)n([C@@H]4CCCNC(=O)C4)c(=O)c3s2)c1 (single isomer, unassigned) [Example 23]
Second: COc1ccc(Cl)c(-c2cc3[nH]c(=O)n([C@H]4CCCNC(=O)C4)c(=O)c3s2)c1 (single isomer, unassigned) [Example 24]
The EC50 of the first is 11-fold lower: 12.7 nM for the first, 142 nM for the second.

Same assay, conditions: Severe acute respiratory syndrome coronavirus 2, 48 h; read-out: MPro EC50

Compared with `COc1cc(-c2cc3[nH]c(=O)n([C@@H]4CC(=O)NC[C@@H](C)C4)c(=O)c3s2)c(Cl)cc1F` (single isomer, unassigned) [Example 53], `COc1cc(-c2cc3[nH]c(=O)n([C@@H]4CC(=O)NC[C@H](C)C4)c(=O)c3s2)c(Cl)cc1F` (single isomer, unassigned) [Example 54] is 1.7-fold lower in EC50: 34 nM for the first, 20.4 nM for the second. The second is the more potent here.

First: O=C1CC(n2c(=O)[nH]c3cc(-c4ccccc4Cl)sc3c2=O)CCN1 (stereo not shown) [Example 1, 6-(2-chlorophenyl)-3-(2-oxopiperidin-4-yl)thieno[3,2-d]pyrimidine-2,4(1H,311)-dione]
Second: O=C1C[C@H](n2c(=O)[nH]c3cc(-c4ccccc4Cl)sc3c2=O)CCN1 [Example 4, (R)-6-(2-chlorophenyl)-3-(2-oxopiperidin-4-yl)thieno[3,2-d]pyrimidine-2,4(1H,3H)-dione]
The EC50 of the first is 3.8-fold lower: 255 nM for the first, 978 nM for the second.

Compared with `O=C1C[C@H](n2c(=O)[nH]c3cc(-c4ccccc4Cl)sc3c2=O)CN1` [Example 2, 6-(2-chlorophenyl)-3-[(3S)-5-oxopyrrolidin-3-yl]-1H-thieno[3,2-d]pyrimidine-2,4-dione], `O=C1C[C@@H](n2c(=O)[nH]c3cc(-c4ccccc4Cl)sc3c2=O)CN1` [Example 3, 6-(2-chlorophenyl)-3-[(3R)-5-oxopyrrolidin-3-yl]-1H-thieno[3,2-d]pyrimidine-2,4-dione] is 5.2-fold lower in EC50: 35500 nM for the first, 6830 nM for the second.

`O=C1C[C@@H](n2c(=O)[nH]c3cc(-c4ccccc4Cl)sc3c2=O)CCN1` [Example 5, (S)-6-(2-chlorophenyl)-3-(2-oxopiperidin-4-yl)thieno[3,2-d]pyrimidine-2,4(1H,3H)-dione] and `O=C1CC(n2c(=O)[nH]c3cc(-c4ccccc4Cl)sc3c2=O)CCCN1` (stereo not shown) [Example 8, 6-(2-chlorophenyl)-3-(2-oxoazepan-4-yl)thieno[3,2-d]pyrimidine-2,4(1H,3H)-dione] are within 1.5-fold of each other in EC50: 92.7 nM for the first, 61.9 nM for the second.

First: O=C1C[C@H](n2c(=O)[nH]c3cc(-c4ccccc4Cl)ccc3c2=O)CCN1 [Example 6, (R)-7-(2-chlorophenyl)-3-(2-oxopiperidin-4-yl)quinazoline-2,4(1H,3H)-dione]
Second: O=C1CC(n2c(=O)[nH]c3cc(-c4ccccc4Cl)ccc3c2=O)CCCN1 (stereo not shown) [Example 9, 7-(2-chlorophenyl)-3-(2-oxoazepan-4-yl)quinazoline-2,4(1H,3H)-dione]
The EC50 of the first is 6.2-fold higher: 29900 nM for the first, 4850 nM for the second.

`COc1ccc(Cl)c(-c2cc3[nH]c(=O)n(C4CCNC(=O)C4)c(=O)c3s2)c1` (stereo not shown) [Example 7, 6-(2-chloro-5-methoxy-phenyl)-3-(2-oxo-4-piperidyl)-1H-thieno[3,2-d]pyrimidine-2,4-dione] and `COc1ccc(Cl)c(-c2cc3[nH]c(=O)n([C@H]4CCNC(=O)C4)c(=O)c3s2)c1` [Example 17, (S)-6-(2-chloro-5-methoxyphenyl)-3-(2-oxopiperidin-4-yl)thieno[3,2-d]pyrimidine-2,4(1H,3H)-dione] are within 1.5-fold of each other in EC50: 77.1 nM for the first, 84.6 nM for the second.

First: Cc1cc(-c2cccc(Cl)c2-c2cc3[nH]c(=O)n(C4CCNC(=O)C4)c(=O)c3s2)cnn1 (stereo not shown) [Example 10, 6-(2-chloro-6-(6-methylpyridazin-4-yl)phenyl)-3-(2-oxopiperidin-4-yl)thieno[3,2-d]pyrimidine-2,4(1H,3H)-dione]
Second: Cc1cc(-c2cccc(Cl)c2-c2cc3[nH]c(=O)n(C4CCNC(=O)C4)c(=O)c3s2)cn2ncnc12 (stereo not shown) [Example 11, 6-(2-chloro-6-(8-methyl-[1,2,4]triazolo[1,5-a]pyridin-6-yl)phenyl)-3-(2-oxopiperidin-4-yl)thieno[3,2-d]pyrimidine-2,4(1H,3H)-dione]
The EC50 of the first is 4.5-fold higher: 5500 nM for the first, 1210 nM for the second.

First: Cn1cc(-c2cccc(Cl)c2-c2cc3[nH]c(=O)n(C4CCNC(=O)C4)c(=O)c3s2)c(C(F)(F)F)n1 (stereo not shown) [Example 12, 6-(2-chloro-6-(1-methyl-3-(trifluoromethyl)-1H-pyrazol-4-yl)phenyl)-3-(2-oxopiperidin-4-yl)thieno[3,2-d]pyrimidine-2,4(1H,3H)-dione]
Second: O=C1CC(n2c(=O)[nH]c3cc(-c4c(Cl)cccc4-c4ccc5c(c4)OC(F)(F)O5)sc3c2=O)CCN1 (stereo not shown) [Example 13, 6-(2-chloro-6-(2,2-difluorobenzo[d][1,3]dioxol-5-yl)phenyl)-3-(2-oxopiperidin-4-yl)thieno[3,2-d]pyrimidine-2,4(1H,3H)-dione]
The EC50 of the first is 4.8-fold higher: 752 nM for the first, 157 nM for the second.

`COc1cc(-c2cc3[nH]c(=O)n(C4CCNC(=O)C4)c(=O)c3s2)c(Cl)cc1F` (stereo not shown) [Example 14, 6-(2-chloro-4-fluoro-5-methoxyphenyl)-3-(2-oxopiperidin-4-yl)thieno[3,2-d]pyrimidine-2,4(1H,3H)-dione] and `COc1cc(-c2cc3[nH]c(=O)n([C@H]4CCNC(=O)C4)c(=O)c3s2)c(Cl)cc1F` [Example 16, (S)-6-(2-chloro-4-fluoro-5-methoxyphenyl)-3-(2-oxopiperidin-4-yl)thieno[3,2-d]pyrimidine-2,4(1H,3H)-dione] are within 1.5-fold of each other in EC50: 318 nM for the first, 222 nM for the second.

Compared with `COc1cnc(Cl)c(-c2cc3[nH]c(=O)n(C4CCNC(=O)C4)c(=O)c3s2)c1` (stereo not shown) [Example 15, 6-(2-chloro-5-methoxypyridin-3-yl)-3-(2-oxopiperidin-4-yl)thieno[3,2-d]pyrimidine-2,4(1H,3H)-dione], `COc1ccc(Cl)c(-c2cc3[nH]c(=O)n(C4CCCNC(=O)C4)c(=O)c3s2)c1` (stereo not shown) [Example 20, 6-(2-chloro-5-methoxyphenyl)-3-(2-oxoazepan-4-yl)thieno[3,2-d]pyrimidine-2,4(1H,3H)-dione] is 330-fold lower in EC50: 18600 nM for the first, 56.4 nM for the second. The second is the more potent here.

First: COc1cc(Cl)c(-c2cc3[nH]c(=O)n([C@H]4CCNC(=O)C4)c(=O)c3s2)cc1OC [Example 18, (S)-6-(2-chloro-4,5-dimethoxyphenyl)-3-(2-oxopiperidin-4-yl)thieno[3,2-d]pyrimidine-2,4(1H,3H)-dione]
Second: COc1cc(-c2cc3[nH]c(=O)n([C@@H]4CCCNC(=O)C4)c(=O)c3s2)c(Cl)cc1F [Example 30, (R)-6-(2-chloro-4-fluoro-5-methoxyphenyl)-3-(2-oxoazepan-4-yl)thieno[3,2-d]pyrimidine-2,4(1H,3H)-dione]
The EC50 of the first is 150-fold higher: 1150 nM for the first, 7.73 nM for the second. The second is the more potent here.

Compared with `Cc1noc(C)c1-c1cc2[nH]c(=O)n([C@H]3CCNC(=O)C3)c(=O)c2s1` [Example 19, (S)-6-(3,5-dimethylisoxazol-4-yl)-3-(2-oxopiperidin-4-yl)thieno[3,2-d]pyrimidine-2,4(1H,3H)-dione], `COc1ccc(C#N)c(-c2cc3[nH]c(=O)n([C@H]4CCNC(=O)C4)c(=O)c3s2)c1` [Example 26, (S)-2-(2,4-dioxo-3-(2-oxopiperidin-4-yl)-1,2,3,4-tetrahydrothieno[3,2-d]pyrimidin-6-yl)-4-methoxybenzonitrile] is 17-fold lower in EC50: 35800 nM for the first, 2120 nM for the second.

First: COc1ccc(C#N)c(-c2cc3[nH]c(=O)n(C4CCCNC(=O)C4)c(=O)c3s2)c1 (stereo not shown) [Example 25, 2-(2,4-dioxo-3-(2-oxoazepan-4-yl)-1,2,3,4-tetrahydrothieno[3,2-d]pyrimidin-6-yl)-4-methoxybenzonitrile]
Second: COc1cc(-c2cc3[nH]c(=O)n([C@H]4CCCNC(=O)C4)c(=O)c3s2)c(Cl)cc1F [Example 31, (S)-6-(2-chloro-4-fluoro-5-methoxyphenyl)-3-(2-oxoazepan-4-yl)thieno[3,2-d]pyrimidine-2,4(1H,3H)-dione]
The EC50 of the first is 8.4-fold higher: 432 nM for the first, 51.2 nM for the second. The second is the more potent here.

Compared with `COc1ccc(Cl)c(-c2ccc3c(=O)n(C4CCCNC(=O)C4)c(=O)[nH]c3c2)c1` (stereo not shown) [Example 27, 7-(2-chloro-5-methoxyphenyl)-3-(2-oxoazepan-4-yl)quinazoline-2,4(1H,3H)-dione], `COc1ccc(Cl)c(-c2cc3c(s2)c(=O)n([C@@H]2CCCNC(=O)C2)c(=O)n3CC#N)c1` [Example 28, (R)-2-(6-(2-chloro-5-methoxyphenyl)-2,4-dioxo-3-(2-oxoazepan-4-yl)-3,4-dihydrothieno[3,2-d]pyrimidin-1(2H)-yl)acetonitrile] is 110-fold lower in EC50: 646 nM for the first, 5.87 nM for the second.

`COc1ccc(Cl)c(-c2cc3c(s2)c(=O)n([C@@H]2CCCNC(=O)C2)c(=O)n3CCC#N)c1` [Example 29, (R)-3-(6-(2-chloro-5-methoxyphenyl)-2,4-dioxo-3-(2-oxoazepan-4-yl)-3,4-dihydrothieno[3,2-d]pyrimidin-1(2H)-yl)propanenitrile] and `COc1cc(-c2cc3c(s2)c(=O)n([C@@H]2CCCNC(=O)C2)c(=O)n3CC#N)c(Cl)cc1F` [Example 34, (R)-2-(6-(2-chloro-4-fluoro-5-methoxyphenyl)-2,4-dioxo-3-(2-oxoazepan-4-yl)-3,4-dihydrothieno[3,2-d]pyrimidin-1(2H)-yl)acetonitrile] cannot be ordered by EC50: under 5.64 nM for the first, 3.03 nM for the second.

Compared with `COc1cc(-c2cc3c(s2)c(=O)n([C@@H]2CCCNC(=O)C2)c(=O)n3C)c(Cl)cc1F` [Example 32, (R)-6-(2-chloro-4-fluoro-5-methoxyphenyl)-1-methyl-3-(2-oxoazepan-4-yl)thieno[3,2-d]pyrimidine-2,4(1H,3H)-dione], `COc1cc(-c2cc3c(s2)c(=O)n([C@H]2CCCNC(=O)C2)c(=O)n3C)c(Cl)cc1F` [Example 33, (S)-6-(2-chloro-4-fluoro-5-methoxyphenyl)-1-methyl-3-(2-oxoazepan-4-yl)thieno[3,2-d]pyrimidine-2,4(1H,3H)-dione] is 48-fold higher in EC50: 15.6 nM for the first, 747 nM for the second. The first is the more potent here.

`COc1cc(-c2cc3c(s2)c(=O)n([C@H]2CCCNC(=O)C2)c(=O)n3CC#N)c(Cl)cc1F` [Example 35, (S)-2-(6-(2-chloro-4-fluoro-5-methoxyphenyl)-2,4-dioxo-3-(2-oxoazepan-4-yl)-3,4-dihydrothieno[3,2-d]pyrimidin-1(2H)-yl)acetonitrile] gave an EC50 of 84.6 nM.
